Columns and labels:
Experiment in all cases: cells
Format in all cases: cell-based
MOLT-4 = MOLT-4 (Leukemia), 10 μM, 48 hours
RPMI-8226 = RPMI-8226 (Leukemia), 10 μM, 48 hours
A549/ATCC = A549/ATCC (Non-Small Cell Lung Cancer), 10 μM, 48 hours
NCI-H322M = NCI-H322M (Non-Small Cell Lung Cancer), 10 μM, 48 hours
NCI-H522 = NCI-H522 (Non-Small Cell Lung Cancer), 10 μM, 48 hours
HCC-2998 = HCC-2998 (Colon Cancer), 10 μM, 48 hours
HCT-15 = HCT-15 (Colon Cancer), 10 μM, 48 hours
SF-268 = SF-268 (CNS Cancer), 10 μM, 48 hours
SNB-19 = SNB-19 (CNS Cancer), 10 μM, 48 hours
SNB-75 = SNB-75 (CNS Cancer), 10 μM, 48 hours
LOX IMVI = LOX IMVI (Melanoma), 10 μM, 48 hours
MALME-3M = MALME-3M (Melanoma), 10 μM, 48 hours
M14 = M14 (Melanoma), 10 μM, 48 hours
MDA-MB-435 = MDA-MB-435 (Melanoma), 10 μM, 48 hours
UACC-257 = UACC-257 (Melanoma), 10 μM, 48 hours
UACC-62 = UACC-62 (Melanoma), 10 μM, 48 hours
OVCAR-3 = OVCAR-3 (Ovarian Cancer), 10 μM, 48 hours
OVCAR-4 = OVCAR-4 (Ovarian Cancer), 10 μM, 48 hours
OVCAR-5 = OVCAR-5 (Ovarian Cancer), 10 μM, 48 hours
OVCAR-8 = OVCAR-8 (Ovarian Cancer), 10 μM, 48 hours
SK-OV-3 = SK-OV-3 (Ovarian Cancer), 10 μM, 48 hours
ACHN = ACHN (Renal Cancer), 10 μM, 48 hours
CAKI-1 = CAKI-1 (Renal Cancer), 10 μM, 48 hours
TK-10 = TK-10 (Renal Cancer), 10 μM, 48 hours
UO-31 = UO-31 (Renal Cancer), 10 μM, 48 hours
PC-3 = PC-3 (Prostate Cancer), 10 μM, 48 hours
MCF7 = MCF7 (Breast Cancer), 10 μM, 48 hours
MDA-MB-231/ATCC = MDA-MB-231/ATCC (Breast Cancer), 10 μM, 48 hours
MDA-MB-468 = MDA-MB-468 (Breast Cancer), 10 μM, 48 hours

Compound | growth percentage (MOLT-4) [%] | growth percentage (RPMI-8226) [%] | growth percentage (A549/ATCC) [%] | growth percentage (NCI-H322M) [%] | growth percentage (NCI-H522) [%] | growth percentage (HCC-2998) [%] | growth percentage (HCT-15) [%] | growth percentage (SF-268) [%] | growth percentage (SNB-19) [%] | growth percentage (SNB-75) [%] | growth percentage (LOX IMVI) [%] | growth percentage (MALME-3M) [%] | growth percentage (M14) [%] | growth percentage (MDA-MB-435) [%] | growth percentage (UACC-257) [%] | growth percentage (UACC-62) [%] | growth percentage (OVCAR-3) [%] | growth percentage (OVCAR-4) [%] | growth percentage (OVCAR-5) [%] | growth percentage (OVCAR-8) [%] | also measured
CNc1nc2ccccc2c2c1-c1ccc(Cl)cc1C2=O [SJ-1, 9-Chloro-6-(methylamino)-11H-indeno[1,2-c]quinolin-11-one] | 93.26 | 91.82 | 96.83 | 80.85 | 90.50 | 57.51 | 66.20 | 97.27 | 95.95 | 79.70 | 93.40 | 114.83 | 112.68 | 107.24 | 107.69 | 77.41 | 84.91 | 72.83 | 81.54 | 94.33 | growth percentage (SK-OV-3): 92.62%; growth percentage (ACHN): 88.46%; growth percentage (CAKI-1): 73.84%; growth percentage (TK-10): 65.31%; growth percentage (UO-31): 56.91%; growth percentage (PC-3): 89.44%; growth percentage (MCF7): 5.24%; growth percentage (MDA-MB-231/ATCC): 83.87%; growth percentage (MDA-MB-468): -31.61%
CN(C)c1nc2ccccc2c2c1-c1ccc(Cl)cc1C2=O [SJ-2, 9-Chloro-6-(dimethylamino)-11H-indeno[1,2-c]quinolin-11-one] | 88.92 | 88.05 | 98.85 | 78.83 | 88.97 | 81.50 | 80.49 | 100.26 | 104.19 | 69.12 | 85.45 | 111.50 | 113.63 | 97.33 | 101.11 | 78.16 | 103.48 | 84.28 | 89.14 | 84.55 | growth percentage (SK-OV-3): 99.12%; growth percentage (ACHN): 87.55%; growth percentage (CAKI-1): 84.65%; growth percentage (TK-10): 91.84%; growth percentage (UO-31): 48.63%; growth percentage (PC-3): 82.55%; growth percentage (MCF7): 23.99%; growth percentage (MDA-MB-231/ATCC): 76.68%; growth percentage (MDA-MB-468): 0.60%

Source: patent US20150197492A1, “NOVEL INDENO[1,2-c]QUINOLIN-11-ONE DERIVATIVES, PREPARATION METHOD AND APPLICATION THEREOF” (National Defense Medical Center, priority 2014, published 2015)
